# Measurements from patent US5840684A, “Glycopeptide antibiotic derivatives” (Eli Lilly and Company, priority 1995, dated 1998).
# Tests used:
# [1] = test system: Staphylococcus haemolyticus 415; assay: broth micro-dilution MIC; type: cell-based
# Method: (§1) The formula I compounds have in vitro and in vivo activity against Gram-positive pathogenic bacteria. The MIC's were determined using a standard broth micro-dilution assay.
# [2] = test system: Haemophilus influenzae RD; assay: broth micro-dilution MIC; type: cell-based; settings: Haemophilus influenzae RD
# Method: as §1
# [3] = test system: Streptococcus pneumoniae P1; assay: broth micro-dilution MIC; type: cell-based
# Method: as §1
# Entercoccus faecium 180 = assay: broth micro-dilution MIC; type: cell-based; settings: Entercoccus faecium 180
# Method: as §1
# [4] = test system: Staphylococcus epidermidis 270; assay: broth micro-dilution MIC; type: cell-based
# Method: as §1
# Entercoccus faecium 2041 = assay: broth micro-dilution MIC; type: cell-based; settings: Entercoccus faecium 2041
# Method: as §1
# [5] = test system: Staphylococcus haemolyticus 105; assay: broth micro-dilution MIC; type: cell-based
# Method: as §1
# [6] = test system: vancomycin-susceptible enterococci; assay: broth micro-dilution, mean geometric MIC; type: cell-based, Enterococcus faecium and Enterococcus faecalis; settings: enterococci, 24-hour incubation
# [7] = test system: vancomycin-resistant enterococci; assay: broth micro-dilution, mean geometric MIC; type: cell-based, Enterococcus faecium and Enterococcus faecalis; settings: enterococci, 24-hour incubation
# [8] = test system: Streptococcus pyogenes C203; assay: broth micro-dilution MIC; type: cell-based
# Method: (§2) The MIC's were determined using a standard broth micro-dilution assay.
# [9] = test system: Staphylococcus aureus 446; assay: broth micro-dilution MIC; type: cell-based
# Method: as §2
# [10] = test system: Entercoccus faecium 180-1; assay: broth micro-dilution MIC; type: cell-based
# Method: as §2
# [11] = test system: Staphylococcus aureus 489; assay: broth micro-dilution MIC; type: cell-based
# Method: as §2
# [12] = test system: Staphylococcus aureus 447; assay: broth micro-dilution MIC; type: cell-based
# Method: as §2
# [13] = test system: Staphylococcus aureus X400; assay: broth micro-dilution MIC; type: cell-based
# Method: as §2
# [14] = test system: Staphylococcus aureus SA1199A; assay: broth micro-dilution MIC; type: cell-based
# Method: as §2
# [15] = test system: Staphylococcus aureus SA1199; assay: broth micro-dilution MIC; type: cell-based
# Method: as §2
# [16] = test system: Staphylococcus aureus S13E; type: cell-based
# Method: as §2
# [17] = test system: Staphylococcus aureus SA1199B; type: cell-based
# Method: as §2
# [18] = test system: Enterococcus gallinarum 245; assay: broth micro-dilution MIC; type: cell-based; settings: Enterococcus gallinarum 245
# Method: as §1
# Entercoccus faecium 276 = assay: broth micro-dilution MIC; type: cell-based
# Method: as §2
# [19] = test system: Staphylococcus aureus X778; assay: broth micro-dilution MIC; type: cell-based
# Method: as §2
SMILES,MIC [1] [µg/mL],MIC [2] [µg/mL],MIC [3] [µg/mL],MIC (Entercoccus faecium 180) [µg/mL],MIC (Entercoccus faecium 2041) [µg/mL],MIC [5] [µg/mL],"mean geometric MIC, Vancomycin Sensitive Strains [6] [µg/mL]","mean geometric MIC, Vancomycin Resistant Strains [7] [µg/mL]",MIC [8] [µg/mL],MIC [9] [µg/mL],MIC [10] [µg/mL],MIC [11] [µg/mL],MIC [12] [µg/mL],MIC [13] [µg/mL],MIC [14] [µg/mL],MIC [15] [µg/mL],MIC [16] [µg/mL],MIC [17] [µg/mL],MIC [18] [µg/mL],MIC (Entercoccus faecium 276) [µg/mL],other results
CNC(CC(C)C)C(=O)NC1C(=O)NC(CC(N)=O)C(=O)NC2C(=O)NC3C(=O)NC(C(=O)NC(C(=O)O)c4cc(O)cc(O)c4-c4cc3ccc4O)C(OC3CC(C)(N)C(O)C(C)O3)c3ccc(c(Cl)c3)Oc3cc2cc(c3OC2OC(CO)C(O)C(O)C2OC2CC(C)(NCc3ccc(-c4ccc(O)cc4)cc3)C(O)C(C)O2)Oc2ccc(cc2Cl)C1O (centres unmarked) [Compound 20],4,8,≤ 0.06,1,≤ 0.06,8,0.38,4.8,≤ 0.06,0.5,≤ 0.06,0.5,4,0.5,≤ 0.06,2,≤ 0.06,0.5,,,MIC [4]: 2 µg/mL
CNC(CC(C)C)C(=O)NC1C(=O)NC(CC(N)=O)C(=O)NC2C(=O)NC3C(=O)NC(C(=O)NC(C(=O)O)c4cc(O)cc(O)c4-c4cc3ccc4O)C(OC3CC(C)(N)C(O)C(C)O3)c3ccc(c(Cl)c3)Oc3cc2cc(c3OC2OC(CO)C(O)C(O)C2OC2CC(C)(NCc3ccc(Oc4ccccc4[N+](=O)[O-])cc3)C(O)C(C)O2)Oc2ccc(cc2Cl)C1O (centres unmarked) [Compound 70],2,16,,0.5,≤ 0.06,2,0.092,2.0,,,≤ 0.06,≤ 0.06,0.5,≤ 0.06,≤ 0.06,≤ 0.06,≤ 0.06,≤ 0.06,2,≤ 0.06,MIC [4]: 0.25 µg/mL; MIC [19]: ≤ 0.06 µg/mL
CNC(CC(C)C)C(=O)NC1C(=O)NC(CC(N)=O)C(=O)NC2C(=O)NC3C(=O)NC(C(=O)NC(C(=O)O)c4cc(O)cc(O)c4-c4cc3ccc4O)C(OC3CC(C)(N)C(O)C(C)O3)c3ccc(c(Cl)c3)Oc3cc2cc(c3OC2OC(CO)C(O)C(O)C2OC2CC(C)(NCc3ccc(OC(F)F)cc3)C(O)C(C)O2)Oc2ccc(cc2Cl)C1O (centres unmarked) [Compound 72],4,32,,0.5,≤ 0.06,1,0.28,4.7,,2,≤ 0.06,≤ 0.06,1,,≤ 0.06,1,≤ 0.06,≤ 0.06,4,≤ 0.06,
CNC(CC(C)C)C(=O)NC1C(=O)NC(CC(N)=O)C(=O)NC2C(=O)NC3C(=O)NC(C(=O)NC(C(=O)O)c4cc(O)cc(O)c4-c4cc3ccc4O)C(OC3CC(C)(N)C(O)C(C)O3)c3ccc(c(Cl)c3)Oc3cc2cc(c3OC2OC(CO)C(O)C(O)C2OC2CC(C)(NCCc3ccc4ccccc4c3)C(O)C(C)O2)Oc2ccc(cc2Cl)C1O (centres unmarked) [Compound 179],1,4,≤ 0.06,≤ 0.06,≤ 0.06,0.5,0.060,1.7,≤ 0.06,,≤ 0.06,≤ 0.06,,≤ 0.06,≤ 0.06,1,,,1,≤ 0.06,MIC [19]: ≤ 0.06 µg/mL
CNC(CC(C)C)C(=O)NC1C(=O)NC(CC(N)=O)C(=O)NC2C(=O)NC3C(=O)NC(C(=O)NC(C(=O)O)c4cc(O)cc(O)c4-c4cc3ccc4O)C(O)c3ccc(c(Cl)c3)Oc3cc2cc(c3OC2OC(CO)C(O)C(O)C2OC2CC(C)(NCc3ccc(-c4ccccc4)cc3)C(O)C(C)O2)Oc2ccc(cc2Cl)C1O (centres unmarked) [Compound 181],1,32,≤ 0.06,4,,0.25,0.060,8.0,≤ 0.06,≤ 0.06,≤ 0.06,≤ 0.06,≤ 0.06,≤ 0.06,≤ 0.06,≤ 0.06,≤ 0.06,≤ 0.06,≤ 0.06,2,MIC [19]: ≤ 0.06 µg/mL
CNC(CC(C)C)C(=O)NC1C(=O)NC(CC(N)=O)C(=O)NC2C(=O)NC3C(=O)NC(C(=O)NC(C(=O)O)c4cc(O)cc(O)c4-c4cc3ccc4O)C(OC3CC(C)(N)C(O)C(C)O3)c3ccc(c(Cl)c3)Oc3cc2cc(c3OC2OC(CO)C(O)C(O)C2OC2CC(C)(NCCCCCCc3ccccc3)C(O)C(C)O2)Oc2ccc(cc2Cl)C1O (centres unmarked) [Compound 196],1,32,≤ 0.06,0.5,≤ 0.06,0.5,0.027,1.7,≤ 0.06,0.5,≤ 0.06,1,0.5,0.5,≤ 0.06,0.5,1,0.5,1,,MIC [19]: 1 µg/mL
C=CCCCOc1ccc(CNC2(C)CC(OC3C(Oc4c5cc6cc4Oc4ccc(cc4Cl)C(OC4CC(C)(N)C(O)C(C)O4)C4NC(=O)C(NC(=O)C6NC(=O)C(CC(N)=O)NC(=O)C(NC(=O)C(CC(C)C)NC)C(O)c6ccc(c(Cl)c6)O5)c5ccc(O)c(c5)-c5c(O)cc(O)cc5C(C(=O)O)NC4=O)OC(CO)C(O)C3O)OC(C)C2O)cc1 (centres unmarked) [Compound 226],1,32,≤ 0.06,≤ 0.06,≤ 0.06,2,0.041,1.6,≤ 0.06,1,≤ 0.06,0.5,0.5,,,1,0.5,1,1,,MIC [4]: 1 µg/mL
CNC(CC(C)C)C(=O)NC1C(=O)NC(CC(N)=O)C(=O)NC2C(=O)NC3C(=O)NC(C(=O)NC(C(=O)O)c4cc(O)cc(O)c4-c4cc3ccc4O)C(OC3CC(C)(N)C(O)C(C)O3)c3ccc(c(Cl)c3)Oc3cc2cc(c3OC2OC(CO)C(O)C(O)C2OC2CC(C)(NCc3ccc(-c4ccccc4C)c(C)c3)C(O)C(C)O2)Oc2ccc(cc2Cl)C1O (centres unmarked) [Compound 237],1,8,≤ 0.06,,0.125,1,0.048,1.0,≤ 0.06,2,≤ 0.06,0.5,1,1,≤ 0.06,1,,,1,1,MIC [4]: 0.5 µg/mL; MIC [19]: 0.5 µg/mL
